Values of other authors in US20080014271A1, “NOVEL PHARMACEUTICAL COMPOSITIONS COMPRISING LEVETIRACETAM” (UCB, S.A., priority 2006, published 2008).

System: epilepsy

CC[C@H](C(N)=O)N1CCCC1=O [(R)-(+)-alpha-ethyl-2-oxo-1-pyrrolidine acetamide]
Activity in the treatment of epilepsy: completely lacks activity
